Data set [1] has as its system HeLa. As to the kind of experiment: CellTiter-Glo luminescent cell viability assay (ATP quantification), HeLa. The class given is cell-based. The settings on record: cervical cancer cells, 72 h treatment, viable cells by ATP luminescence. On the procedure:
(§1) Influence of the test compounds on viability (proliferation) of cell lines used was investigated in concentration range 0-100 μmol·l^−1.
Adherent cell line HeLa is a permanent in vitro culture derived from cervical cancer. HeLa cell line was cultivated in RPMI 1640 medium (Dutch modification) (Sigma-Aldrich, cat. no. R7638) with addition of 2 mmol·l^−1 glutamine (Invitrogen, see above), 10% fetal bovine serum (FBS, Sigma-Aldrich, see above), 100 IU/ml peniciline, 100 μg/ml streptomycine (Sigma-Aldrich, see above). Passaging was performed twice a week. After washing of cells with sterile PBS the cells were released by 0.25% trypsin/EDTA (Sigma-Aldrich, cat. no. T4049) at 37° C. for 2 minutes. The trypsin was inactivated by addition of 2 volumes of complete medium, cells were then centrifuged (250×g, 5 min), the cell pellet was resuspended, and transferred in the amount needed into a new cultivation bottle with fresh medium. Population doubling time of […] cell line was 25 h under the cultivation conditions used.
(§2) In order to test the sensitivity of the cell lines towards the studied helquats, cytotoxity test for cell viability assessment based on ATP quantification in cell lysates was used (CellTiter-Glo® Luminescent Cell Viability Assay, Promega, cat. no. G7571). In this test, ATP in cell lysates is detected using luciferase reaction. Luminescence intensity correlates with the ATP level and thus with quantity of metabolically active (viable) cells. IC50 value serves as the output, that is the concentration of the test compound which leads to 50% reduction in number of viable cells as compared to control, untreated population. To this end, IC50 value reflects efficiency of the test compound with regard to the given cell line.
(§3) Cells in the exponential growth phase were seeded into a 96-well microtiter plate were plated at 3000 cells per well. Each well contained 90 μl of cell suspension. The next day, 10 μl of 10× concentrated test compound solutions were added. The effect of helquats was investigated in concentration range 1 to 100 μmol·l^−1 (e.g. 1; 2.5; 5; 7.5; 10; 15; 25; 50 and 100 μmol·l^−1). Apart from the section containing the concentration series of the test compound, each well contained 2 control columns, the first with pure medium (so called blank) and the second with cells in medium without the test compounds (control). Into wells containing controls and blanks, volume of solvent (water) equal to the volume of added compound solutions was added. After 72 h of incubation with the test compounds viability was determined according to the manufacturer's instructions. In short: microtiter well plate was left 30 min to reach the room temperature after it has been removed from the incubator. Then, into each well, 100 μl of the prepared detection agent was added. Next, the well plate was shaken for 2 min to complete the full lysis. Next, after the well had been left in the dark for 15 min, the luminescence was measured in each well using luminometer (Tecan Genios, Austria).
(§4) IC50 value represents concentration of the test compound, which leads to 50% reduction of viable cells (inhibition of cell growth) after 72 h of the treatment. Each helquat concentration was tested in triplicates in a IC50 quantification and at least 3 independent IC50 quantification experiments were performed. IC50 values over 100 μmol·l^−1 were obtained by extrapolation of data measured in concentration range 0-100 μmol·l^−1 for the given helquat.
(In general: ATP-based viability assays read luminescence as a measure of living cells.)

Data set [2] deals with HL-60. Briefly: CellTiter-Glo luminescent cell viability assay (ATP quantification), HL-60. The class given is cell-based. To be noted: acute promyelocytic leukemia cells, 72 h treatment, viable cells by ATP luminescence. The protocol:
as §1
Suspension cell line HL-60 is a permanent in vitro culture of acute promyelocytic leukemia. HL-60 cell line was cultivated in RPMI 1640 medium (Sigma-Aldrich, see above) with addition of 2 mmol·l^−1 glutamine (Invitrogen, see above), 10% fetal bovine serum (FBS, Sigma-Aldrich, see above), 100 IU/ml peniciline, 100 μg/ml streptomycine (Sigma-Aldrich, see above). Passaging was performed 2-3× a week. Population doubling time of HL-60 cell line was 23 h under the cultivation conditions used.
as §2, §3, §4

The test system of data set [3] is MOLT-4. As to the kind of experiment: CellTiter-Glo luminescent cell viability assay (ATP quantification), MOLT-4. The class given is cell-based. To be noted: acute lymfoblastic leukemia cells, 72 h treatment, viable cells by ATP luminescence. The protocol:
as §1
Suspension cell line MOLT-4 is a permanent in vitro culture of acute lymfoblastic leukemia. Linie MOLT-4 cell line was cultivated in RPMI 1640 medium (Sigma-Aldrich, see above) with addition of 2 mmol glutamine (Invitrogen, see above), 10% fetal bovine serum (FBS, Sigma-Aldrich, see above), 100 IU/ml peniciline, 100 μg/ml streptomycine (Sigma-Aldrich, see above). Passaging was performed 2-3× a week. Population doubling time of […] cell line was 25 h under the cultivation conditions used.
as §2, §3, §4

Data set [4] relates to NHDF-Ad. As to the kind of experiment: CellTiter-Glo luminescent cell viability assay (ATP quantification), NHDF-Ad normal cells. The class given is cell-based. The settings on record: normal human dermal fibroblasts, 72 h treatment.
Text: as §1
Normal human dermal fibroblasts were cultivated without antibiotics in basal medium for fibroblasts (ATCC/LGC Standards, cat. no. PCS-201-030) with added “Fibroblast Growth Kit-Low serum” (ATCC/LGC Standards, cat. no. PCS-201-041) containing 2% FBS, L-glutamine, hydrocortisone, ascorbic acid, rh FGF beta, rh insulin. When 90% confluency was reached the fibroblasts were washed with sterile PBS (5 ml) and dissociated by addition of 0.25% solution of trypsin/EDTA (2 ml; 2 min; 37° C.). After that 5 ml of cultivation medium for fibroblasts was added and the cells were centrifuged (180×g, 7 min), the cell pellet was resuspended, and transferred in the amount needed into a new cultivation bottle with fresh medium. The same cell release procedure was applied when the cells were to be used in experiments. The cells were used in experiments between the 3rd and the 15th passage after defreeezing. Population doubling time of NHDF-Ad cell line was 33 h under the cultivation conditions used.
as §2, §3, §4

The subject of data set [5] is CCRF-CEM. As to the kind of experiment: CellTiter-Glo luminescent cell viability assay (ATP quantification), CCRF-CEM. The class given is cell-based. To be noted: acute lymphoblastic leukemia cells, 72 h treatment, viable cells by ATP luminescence. The protocol: as §1
Suspension cell line CCRF-CEM is a permanent in vitro culture of acute lymphoblastic leukemia. CCRF-CEM cell line was cultivated in RPMI 1640 medium (Sigma-Aldrich, cat. no. R8758) with addition of 2 mmol·l^−1 glutamine (Invitrogen, cat. no. 35050-038), 10% fetal bovine serum (FBS, Sigma-Aldrich, cat. no. F9665), 100 IU/ml peniciline, 100 μg/ml streptomycine (Sigma-Aldrich, cat. no. P0781). Passaging was performed 2-3× a week. Population doubling time of CCRF-CEM cell line was 20 h under the cultivation conditions used.
as §2, §3, §4

Data set [6] deals with HUVEC. Briefly: CellTiter-Glo luminescent cell viability assay (ATP quantification), HUVEC normal cells. The settings on record: 72 h treatment. The class given is cell-based, human. On the procedure: as §1
Normal human endothelial cells from umbilical vein are adherent cells cultivated in plastic Petri dishes coated with collagen I. Into the cultivation medium (E-STIM™; BD Biosciences, cat. co. 355054) already containing 2% FBS (fetal bovine serum), hydrocortisone and heparin the following two further ingredients were added: epidermal growth factor (EGF, 5 μg) and mixture of factors facilitating growth of endothelial cells (ECGS, 100 mg). […] The cells were passaged after reaching 90% confluency by dissociation using 0.25% solution of trypsin/EDTA (1 ml; 3 min; 37° C.). After that 5 ml of complete cultivation medium E-STIM™ was added and the cells were centrifuged (180×g, 7 min), the pellet was resuspended, and transferred in the amount needed into a new Petri dish with fresh medium. The cells were used in experiments between the 3rd and the 8th passage after defreezing. Population doubling time of HUVEC cell line was 38 h under the cultivation conditions used.
as §2, §3, §4

The test system of data set [7] is LoVo. Briefly: CellTiter-Glo luminescent cell viability assay (ATP quantification), LoVo. The class given is cell-based. The settings on record: Homo sapiens, LoVo; colorectal carcinoma cells, 72 h treatment, viable cells by ATP luminescence; class symbols. The protocol: as §1
(§5) Adherent cell line LoVo is a permanent in vitro culture derived from tissue of a patient with colorectal carcinoma. LoVo cell line was cultivated in DMEM medium (Sigma-Aldrich, cat. no. D8437) with addition of 2 mmol·l^−1 glutamine (Invitrogen, see above), 10% fetal bovine serum (FBS, Sigma-Aldrich, see above), 100 IU/ml peniciline, 100 μg/ml streptomycine (Sigma-Aldrich, see above). Passaging was performed twice a week. After washing of cells with sterile PBS, the cells were released by 0.25% trypsin/EDTA (Sigma-Aldrich, see above) at 37° C. for 2 minutes. The trypsin was inactivated by addition of 2 volumes of complete medium, cells were then centrifuged (250×g, 5 min), resuspended, and transferred in the amount needed into a new cultivation bottle with fresh medium. Population doubling time of LoVo cell line was 39 h under the cultivation conditions used.
as §2, §3, §4

Data set [8] has as its system Hep G2. As to the kind of experiment: CellTiter-Glo luminescent cell viability assay (ATP quantification), Hep G2. The class given is cell-based. The settings on record: Homo sapiens, HepG2; hepatocellular carcinoma cells, 72 h treatment, viable cells by ATP luminescence. On the procedure:
as §1
as §5, with “Hep G2” for “LoVo”, “from liver” for “from”, “hepatocellular” for “colorectal”, “M4528)” for “D8437)”, “28” for “39”
as §2
as §3, with “In short: microtiter well plate was left 30 min to reach the room temperature after it has been removed from the incubator. Then, into each well, 100 μl of the prepared detection agent was added. Next, the well plate was shaken for 2 min to complete the full lysis.” left out, “Austria). […]” for “Austria).”

Setting [9] is: Fibroblast, numeric bound, values over 100 obtained by extrapolation of data measured at 0-100 μmol·l−1.
[10] abbreviates: HUVEC, normal human endothelial cells, numeric bound, values over 100 obtained by extrapolation of data measured at 0-100 μmol·l−1.

Counter-ions that a name gives are not always drawn.

One may read the IC50 as the point on the concentration scale where inhibition reaches its midpoint. As to `COc1ccc2cc(/C=C/c3cc[n+]4c(c3)-c3c(c(C)c(C)c5c3-c3c6ccccc6cc[n+]3CC5)CC4)ccc2c1` [(P)-7, (P)-(E)-13-(2-(6-methoxynaphthalene-2-yl)vinyl)-6,7-dimethyl-4,5,8,9-tetrahydroiso-quinolino[1,2-a]pyrido[1,2-k][2,9]phenanthroline-3,10-diium trifluoromethanesulfonate], the IC50 lay within 11 to 50 µM in [1]; 11 to 50 µM in data set [2]; 11 to 50 µM in data set [3]; 51 to 150 µM in data set [4] (viable cells by ATP luminescence, class symbols); 11 to 50 µM in data set [5]; 51 to 150 µM in data set [6] (normal human endothelial cells from umbilical vein, viable cells by ATP luminescence, class symbols).

For the compound `C(=C\c1cc[n+]2c(c1)-c1c(ccc3c1-c1c4ccccc4cc[n+]1CCC3)CCC2)/c1cc2c3c(c1)CCCN3CCC2` (racemic) [(rac)-25, (rac)-(E)-19-(2-(1,2,3,5,6,7-hexahydropyrido[3,2,1-ij]quinolin-9-yl)vinyl)-8,9,10,13,14,15-hexahydropyrido[1′″,2′″:1″,2″]azepino[4″,3″:5′,6′]benzo[1′,2′:3,4]azepino[2,1-a]isoquinoline-7,16-diium trifluoromethanesulfonate], the IC50 in data set [1] (Homo sapiens, HeLa) was 11 to 50 µM; in [2] (Homo sapiens, HL-60), 11 to 50 µM; in data set [3] (Homo sapiens, MOLT-4), 11 to 50 µM; in data set [4] (setting [9]), greater than 150 µM; in [5] (Homo sapiens, CCRF-CEM) it was 11 to 50 µM; in data set [6] (setting [10]) it was greater than 150 µM. This compound also yielded an IC50 in [7] of 51 to 150 µM.

Consider `COc1ccc2cc(/C=C/c3cc[n+]4c(c3)-c3c(c(C)c(C)c5c3-c3c6ccccc6cc[n+]3CC5)CC4)ccc2c1` (racemic) [(rac)-7, (rac)-(E)-13-(2-(6-methoxynaphthalene-2-yl)vinyl)-6,7-dimethyl-4,5,8,9-tetrahydroisoquinolino[1,2-a]pyrido[1,2-k][2,9]phenanthroline-3,10-diium trifluoromethanesulfonate], for which the IC50 was 11 to 50 µM in [1] (Homo sapiens, HeLa); 11 to 50 µM in data set [2] (Homo sapiens, HL-60); 11 to 50 µM in data set [3] (Homo sapiens, MOLT-4); greater than 150 µM in [4] (setting [9]); less than 10 µM in data set [5] (Homo sapiens, CCRF-CEM); greater than 150 µM in data set [6] (setting [10]).

As for `Cc1c(C)c2c(c3c1CC[n+]1ccc4ccccc4c1-3)-c1cccc(/C=C/c3cc4c5c(c3)CCCN5CCC4)[n+]1CC2` (racemic) [(rac)-12, (rac)-(E)-11-(2-(1,2,3,5,6,7-hexahydropyrido[3,2,1-ij]yl)vinyl)-6,7-dimethyl-4,5,8,9-tetrahydroisoquinolino[1,2-a]pyrido[1,2-k][2,9]phenanthroline-3,10-diium trifluoromethanesulfonate], the IC50 was 11 to 50 µM in data set [1] (Homo sapiens, HeLa); 51 to 150 µM in [3] (Homo sapiens, MOLT-4); 51 to 150 µM in [4] (Fibroblast, viable cells by ATP luminescence, class symbols); 11 to 50 µM in [5] (Homo sapiens, CCRF-CEM); 51 to 150 µM in data set [6] (HUVEC, normal human endothelial cells from umbilical vein, viable cells by ATP luminescence, class symbols); 11 to 50 µM in data set [8]. In [7], this compound came in with an IC50 of 51 to 150 µM.

In general, melting point refers to the temperature, or range, at which the solid turns liquid. The compound `CN(C)c1ccc(/C=C/c2cccc3[n+]2CCCc2ccc4c(c2-3)-c2cccc(/C=C/c3ccc(N(C)C)cc3)[n+]2CCC4)cc1` (racemic) (as salt: methanesulfonate) [(rac)-41, (rac)-4,15-bis((E)-4-(dimethylamino)styryl)-6,7,8,11,12,13-hexahydro-dipyrido[1,2-a:1′,2′-a′]benzo[2,1-c:3,4-c′]bisazepinediium trifluoromethanesulfonate] had a melting point of 318 to 322 °C.

These data come from patent publication US9340543B2, “Helquat derivatives, preparation thereof, and use thereof as medicaments” (USTAV ORGANICKE CHEMIE A BIOCHEMIE AKADEMIE VED CR, V.V.I., priority 2013, dated 2016).
